Like-named read-outs stand apart in the source and are kept apart here.
Tests used:
Type in all cases: in vivo
[1] = system: Blumeria (Erysiphe) graminis DC. f.sp. tritici E. Marchal; test: Foliar systemicity test, wheat powdery mildew (band application on leaf); conditions: typically 400 ppm
Source text: Wheat Powdery Mildew (WPM): HOST: Wheat (Triticum aestivum L.) variety Kanzler PATHOGEN: Blumeria (Erysiphe) graminis DC. f.sp. tritici E. Marchal
• 1. Wheat seed (8/pot) is planted in 8 cm diameter plastic pots in the greenhouse. • 2. When the primary leaf is fully expanded, the plants are cut back to four in each pot of which two are marked with a permanent marker 5 cm below the leaf tip on the upper leaf surface. Thus there are two band-treated and two untreated plants in each pot. • 3. A pipette is used to apply 5 µl of the formulated compound in a band on the lower leaf surface opposite the mark. The application band should cover the whole leaf width. After application, the plants are not moved until the bands are dry (half an hour or so later). • 4. After treated plants have dried, they are moved to the greenhouse and kept there for 2 days to allow for movement of the compounds. The plants are maintained with bottom watering. • 5. Two days after application, the plants are inoculated by dusting them with powdery mildew conidia in the greenhouse. Evaluations are typically made 7 - 8 days after inoculation.
Three types of compound movement are assessed by evaluating disease in three areas of each band-treated leaf. Translaminar movement: The percent disease area is assessed for the translaminar band area (marked area of the upper leaf surface directly opposite where band was applied on the lower leaf surface; width of band approximately 5 mm). Translaminar disease control is then calculated using the following formula: % disease control = 100 -(% disease in treated plants)/(% disease in untreated plants)x 100 [formula]
Distal movement and proximal movement: The distal and proximal disease-free zones on the upper leaf surface are measured in mm. The distal direction is from the band toward the leaf apex and the proximal direction is from the band toward the leaf base. The percent of the disease-free zone relative to the entire distance between the band and leaf apex or base is calculated. If disease is noticeably lighter in the distal or proximal area this is also noted.
• 1. […]

[2] = system: Blumeria (Erysiphe) graminis DC. f.sp. tritici E. Marchal; test: Curative and residual control test, Wheat Powdery Mildew (WPM); conditions: read-out: Disease control (% efficacy)
Source text: • (a) Wheat Powdery Mildew (WPM): HOST: Wheat (Triticum aestivum L.) variety Kanzler PATHOGEN: Blumeria (Erysiphe) graminis DC. f.sp. tritici E. Marchal • (b) Cucumber Powdery Mildew (QPM): HOST: Cucumber (Cucumis sativus L.) variety Bush pickle PATHOGEN: Erysiphe cichoracearum DC
This test procedure is for curative and residual control of powdery mildew diseases. • 1. Wheat seed (approximately 8-10/pot) or cucumber seed (1 seed / pot) is planted in 6 cm diameter plastic pots and maintained in the greenhouse. • 2. When the primary leaf (wheat) or the cotyledons (cucumber) is/are fully expanded, formulated test compounds are sprayed with a single nozzle overhead track sprayer at a rate of 200 l/ha. Plants are then allowed to air-dry. • 3. Inoculation precedes treatment by 2 or 3 days in the case of curative evaluations and follows treatment by 3 or 4 days in case of residual evaluations. For inoculation, plants are set up on greenhouse benches with bottom watering mats and inoculated by dusting them with conidia from powdery mildew infected plants (stock cultures at an age of 10-14 days). Between inoculation and treatment for curative evaluations and between treatment and inoculation for residual evaluations, plants are maintained in the greenhouse with bottom watering. • 4. Disease on the primary leaf (wheat) or on the cotyledons (cucumber) as percent leaf area with disease symptoms/signs is evaluated about 7 days after inoculation. In the case of wheat, the tips and bases of the leaves are excluded from the evaluation. Percent disease control is then calculated by the following formula: % disease control = 100 -(% infection in treated plants)/(% infection in untreated plants)x 100 [formula]
(§1) • 1. Technical compounds are formulated in a solvent/surfactant system consisting of 5% acetone and 0.05% Tween 20 in deionized water. Compounds are dissolved in acetone prior to addition of the water; the Tween 20 can be added through either the acetone or the water. Dilutions are made using the solvent/surfactant system. Formulated compounds are prepared using deionized water. • 2. Two kinds of controls are included: • Plants treated with the solvent/surfactant solution and inoculated (Solvent Blank). • Untreated plants which are inoculated (Inoculated Control).

[3] = system: Blumeria (Erysiphe) graminis DC. f.sp. hordei E. Marchal; test: Zero day protectant test, Barley Powdery Mildew (BPM); conditions: barley variety Golden Promise, 0 day protectant test, side-by-side, technical material in 0.5% acetone 0.05% Tween 20 water
Source text: • (a) Wheat Powdery Mildew (WPM): HOST: Wheat (Triticum aestivum L.) variety Kanzler PATHOGEN: Blumeria (Erysiphe) graminis DC. f.sp. tritici E. Marchal • (b) Barley Powdery Mildew (BPM): HOST: Barley (Hordeum vulgare L.) variety Golden Promise PATHOGEN: Blumeria (Erysiphe) graminis DC. f.sp. hordei E. Marchal
This test is a zero day protectant test for control of wheat and barley powdery mildews. • 1. Wheat or barley seed (approximately 8-10/pot) is planted in 6 cm diameter plastic pots and maintained in the greenhouse. • 2. When the primary leaf is fully expanded, formulated test compounds are sprayed with a single nozzle overhead track sprayer at a rate of 200 l/ha. Plants are then allowed to air-dry. • 3. Inoculation follows about three hours after compound application. Plants are set up on greenhouse benches with bottom watering mats and inoculated by dusting them with conidia from powdery mildew infected plants (stock cultures at an age of 10-14 days). • 4. Disease on the primary leaf as percent leaf area with disease symptoms/signs is evaluated about 7 days after inoculation. The tips and bases of the leaves are excluded from the evaluation. Percent disease control is then calculated by the following formula: % disease control = 100 -(% infection in treated plants)/(% infection in untreated plants)x 100 [formula]
as §1, with “system. Test compounds are typically tested over a range of concentrations covering several orders of magnitude and then ED values are calculated for comparison of compounds.” for “system.”
Compounds applied as technical material formulated in 0.5% acetone 0.05% Tween 20 water

**Q.** With `COc1cc(C)c(C(=O)c2c(C)cccc2OC)c(OC)c1OC` [Example 1, 6,6'-dimethyl-2,2',3',4'-tetramethoxy-benzophenone] as the compound, how does the “Translaminar Activity ( % )” value ([1]; % disease control in translaminar band area, wheat variety Kanzler) read?
**A.** 100%

**Q.** And the “Distal Movement (mm from band)” value ([1]; disease-free zone on wheat leaf (variety Kanzler) from band toward leaf apex, 5 µl band, inoculated 2 days after application)?
**A.** 50 mm

**Q.** And the “Proximal Movement (mm from band)” value ([1]; disease-free zone on wheat leaf (variety Kanzler) from band toward leaf base, 5 µl band, inoculated 2 days after application)?
**A.** 10 mm

**Q.** What about the percent disease control at 12.5 ppm ([2]; 48 h, WPM 2 da C (2 day curative), 12,5 ppm, Test A) of the same compound?
**A.** 69%

**Q.** What about the Emax at 12.5 ppm ([2]; 48 h, WPM 2 da C (2 day curative), 12,5 ppm, Test B) of the same compound?
**A.** 52%

**Q.** What about the percent disease control at 125 ppm ([2]; 48 h, WPM 2 da C (2 day curative), 125 ppm, Test A) of the same compound?
**A.** 79%

**Q.** What about the Emax at 125 ppm ([2]; 48 h, WPM 2 da C (2 day curative), 125 ppm, Test B) of the same compound?
**A.** 65%

**Q.** And the percent disease control at 1250 ppm ([2]; 48 h, WPM 2 da C (2 day curative), 1250 ppm, Test A)?
**A.** 88%

**Q.** And the Emax at 1250 ppm ([2]; 48 h, WPM 2 da C (2 day curative), 1250 ppm, Test B)?
**A.** 85%

**Q.** And the percent disease control at 12.5 ppm ([2]; 72 h, WPM 3 da R (3 day residual), 12,5 ppm, Test A)?
**A.** 90%

**Q.** And the Emax at 12.5 ppm ([2]; 72 h, WPM 3 da R (3 day residual), 12,5 ppm, Test B)?
**A.** 100%

**Q.** And the percent disease control at 125 ppm ([2]; 72 h, WPM 3 da R (3 day residual), 125 ppm, Test A)?
**A.** 100%

**Q.** And the percent disease control at 125 ppm ([2]; 72 h, WPM 3 da R (3 day residual), 125 ppm, Test B)?
**A.** 100%

**Q.** What about the percent disease control at 1250 ppm ([2]; 72 h, WPM 3 da R (3 day residual), 1250 ppm, Test A) of the same compound?
**A.** 100%

**Q.** What about the percent disease control at 1250 ppm ([2]; 72 h, WPM 3 da R (3 day residual), 1250 ppm, Test B) of the same compound?
**A.** 100%

**Q.** What about the “ED90 (ppm)” value [3] of the same compound?
**A.** 6 ppm

Source: patent EP0897904B1, “Fungicidal 2-methoxybenzophenones” (BASF AKTIENGESELLSCHAFT, priority 1997, dated 1999)
